Molecular target: delta opioid receptor (DOR), murine, wild-type (Mus musculus, UniProt P32300)
Assay: [3H]naltrindole radioligand binding
Conditions: labelled compound; HEK293 DOR clone; no affinity constant printed

Chain of delta opioid receptor (DOR), murine, wild-type (P32300 whole entry): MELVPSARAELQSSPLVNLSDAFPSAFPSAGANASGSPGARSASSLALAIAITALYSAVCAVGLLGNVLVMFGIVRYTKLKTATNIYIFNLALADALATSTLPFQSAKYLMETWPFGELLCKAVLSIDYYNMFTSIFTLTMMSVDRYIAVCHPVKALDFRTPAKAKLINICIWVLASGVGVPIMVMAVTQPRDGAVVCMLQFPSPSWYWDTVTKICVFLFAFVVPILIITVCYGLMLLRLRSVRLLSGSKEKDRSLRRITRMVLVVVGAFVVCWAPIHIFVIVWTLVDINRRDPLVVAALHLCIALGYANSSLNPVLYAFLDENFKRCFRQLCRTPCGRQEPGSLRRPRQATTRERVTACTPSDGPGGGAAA

Q: Which “[3H]naltrindole radioligand binding” value does the source give for Oc1ccc2c3c1O[C@H]1c4[nH]c5ccccc5c4C[C@@]4(O)[C@@H](C2)N(CC2CC2)CC[C@]314 [[3H]naltrindole] here?
A: Receptor expression levels in DOR clones was assessed by means of [^3H]Naltrindole binding

— paper PMC3823043 (Journal of Cellular and Molecular Medicine, 2008)
